For the assay, the target named is MAP kinase-activated protein kinase 2 (Homo sapiens, UniProt P49137). The experiment in a line: Inhibition of MK2 in human TERT immortalised HCA2 cells assessed as inhibition of anisomycin-induced HSP27 phosphorylation at 2.5 uM by ELISA. Background: ELISA stands for enzyme-linked immunosorbent assay.

Molecules are shown by their SMILES.

Sequence of MAP kinase-activated protein kinase 2 (P49137 whole entry): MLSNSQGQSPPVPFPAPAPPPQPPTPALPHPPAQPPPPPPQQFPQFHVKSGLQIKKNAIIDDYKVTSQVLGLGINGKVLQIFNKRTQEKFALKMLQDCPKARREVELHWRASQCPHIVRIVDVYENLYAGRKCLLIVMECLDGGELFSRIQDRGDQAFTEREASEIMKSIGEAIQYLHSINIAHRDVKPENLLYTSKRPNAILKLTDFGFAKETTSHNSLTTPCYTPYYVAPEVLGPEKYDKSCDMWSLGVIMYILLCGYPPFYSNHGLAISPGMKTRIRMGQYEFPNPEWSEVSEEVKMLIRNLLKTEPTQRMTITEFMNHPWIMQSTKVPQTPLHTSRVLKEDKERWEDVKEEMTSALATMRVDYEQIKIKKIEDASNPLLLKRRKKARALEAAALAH

A word on the Ki: it is a measure of affinity in units of concentration, obtained from inhibition or displacement. In the case of `O=C(CCCc1ccc(-c2ccccc2F)cc1)Nc1ccc(O)cc1`, the inhibition constant (Ki) was determined as 330 nM.

Values taken from BindingDB's records for doi:10.1016/j.bmcl.2007.10.036 (Cardiff University, 2007).
